Measured values published in the supplement of paper PMC10307832.

Legend:
Experiment in all cases: relative viability (nuclei count vs DMSO), 5 days (fraction); higher = more cells survive
[1] = compound: C1CC1C(=O)NC2=NNC3=C2C=CC(=C3)C4=CC(=CC=C4)C(=O)NC5CC5 [XMD13-2] + Nc1ncn([C@H]2C[C@H](O)[C@@H](CO)O2)c(=O)n1 [Decitabine] (partner 2 µM)
In short: (§1)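 Lung cancer cell lines were seeded in 1536-well plates and dosed by pin tool the next day, with either a single drug or a fixed anchor-drug dose combined with five library-drug doses (not always all listed) spaced in √10 steps. Five days later, one step fixed the cells and stained their nuclei (final 0.05% Triton X-100, 1% formaldehyde, 1 ug/ml Hoechst), and nuclei were counted on 4× images. Relative viability is the nuclei count in treated wells divided by the count in vehicle wells, and each value is the median of duplicate plates.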

[2] = compound: Cc1nc(Nc2ncc(C(=O)Nc3c(C)cccc3Cl)s2)cc(N2CCN(CCO)CC2)n1 [Dasatinib] + Cc1nc(NC(=O)N2CCC[C@H]2C(N)=O)sc1-c1ccnc(C(C)(C)C(F)(F)F)c1 [Alpelisib] (partner 2 µM)
In short: as §1

[3] = compound: Cc1ccc(C(=O)Nc2cccc(C(F)(F)F)c2)cc1Nc1cncc(C(N)=O)c1 [ALW-II-49-7] + Cc1cc(Nc2cc(N3CCN(C)CC3)nc(Sc3ccc(NC(=O)C4CC4)cc3)n2)n[nH]1 [Tozasertib] (partner 0.1 µM)
In short: as §1

[4] = compound: C1CC1C(=O)NC2=NNC3=C2C=CC(=C3)C4=CC(=CC=C4)C(=O)NC5CC5 [XMD13-2] + O=C(c1cc(Cc2n[nH]c(=O)c3ccccc23)ccc1F)N1CCN(C(=O)C2CC2)CC1 [Olaparib] (partner 8 µM)
In short: as §1

Cell Line	relative viability ([1]; first compound 0.05 µM)	relative viability ([1]; first compound 0.1581 µM)	relative viability ([1]; first compound 0.5 µM)	relative viability ([1]; first compound 1.581 µM)	relative viability ([1]; first compound 5 µM)	relative viability ([2]; first compound 0.005 µM)	relative viability ([2]; first compound 0.01581 µM)	relative viability ([2]; first compound 0.05 µM)	relative viability ([2]; first compound 0.1581 µM)	relative viability ([2]; first compound 0.5 µM)	relative viability ([3]; first compound 0.08 µM)	relative viability ([3]; first compound 0.253 µM)	relative viability ([3]; first compound 0.8 µM)	relative viability ([3]; first compound 2.53 µM)	relative viability ([3]; first compound 8 µM)	relative viability ([4]; first compound 0.05 µM)	relative viability ([4]; first compound 0.1581 µM)	relative viability ([4]; first compound 0.5 µM)	relative viability ([4]; first compound 1.581 µM)	relative viability ([4]; first compound 5 µM)
HCC-15	0.768	0.652	0.725	0.598	0.627	0.875	0.783	0.779	0.53	0.528	0.325	0.367	0.272	0.328	0.333	0.706	0.66	0.785	0.669	0.661
HCC-44	0.981	0.835	1.01	0.992	0.963	0.789	0.705	0.676	0.271	0.183	–	0.908	0.874	0.109	0.664	1.01	0.983	0.974	1.03	0.986
HCC-78	0.691	0.737	0.664	0.613	0.61	0.259	0.261	0.304	0.257	0.176	0.482	0.396	–	0.43	0.505	0.895	0.781	0.812	0.667	0.733
HCC-366	0.332	0.34	0.33	0.341	0.378	0.096	0.174	0.141	0.151	0.103	0.168	0.17	0.0962	0.0839	0.0614	0.448	0.328	0.444	0.355	0.358
HCC-827	0.317	0.365	0.281	0.719	0.343	1.01	0.737	0.757	0.374	0.123	0.427	0.449	0.4	0.397	0.415	0.722	0.661	0.575	0.609	0.421
HOP-62	0.233	0.204	0.195	0.203	0.199	1.27	1.02	0.838	0.679	0.272	0.278	0.341	0.368	0.358	0.289	0.307	0.697	0.391	–	0.489
IA-LM	–	–	–	–	–	0.969	0.71	0.882	0.84	0.62	–	–	–	–	–	0.832	0.903	0.787	0.707	0.635
NCI-H522	0.615	0.654	0.633	0.546	0.721	–	–	–	–	–	0.622	0.499	0.554	0.507	0.647	0.632	0.7	0.618	0.473	0.65
NCI-H1299	–	–	–	–	–	1.07	1.13	1.08	0.924	0.288	–	–	–	–	–	0.953	0.991	0.959	0.972	1
NCI-H1563	–	–	–	–	–	0.742	0.615	0.662	0.608	0.604	–	–	–	–	–	–	–	–	–	–
NCI-H1623	–	–	–	–	–	–	–	–	–	–	0.339	0.402	0.395	0.396	0.579	–	–	–	–	–
NCI-H1648	0.507	–	0.515	0.475	0.579	–	–	–	–	–	0.382	0.236	0.243	0.313	0.382	0.983	–	0.841	0.762	0.509
NCI-H1650	0.363	0.457	0.413	0.409	0.52	–	–	–	–	–	0.364	0.437	0.374	0.313	0.293	0.78	0.903	0.809	0.795	0.827
NCI-H1703	–	–	–	–	–	0.229	0.179	0.184	0.155	0.157	–	–	–	–	–	0.503	0.417	0.38	–	0.372
NCI-H1792	0.625	0.507	0.581	0.551	0.48	0.73	0.431	0.532	0.389	0.153	–	–	–	–	–	0.628	0.385	0.428	0.383	0.573
NCI-H2228	–	–	–	–	–	0.693	0.769	0.581	0.263	0.268	0.261	0.263	0.277	0.171	0.22	0.834	0.517	0.623	0.554	0.747
NCI-H2342	0.724	0.841	0.778	0.716	0.807	–	–	–	–	–	0.437	0.409	0.478	0.496	0.436	0.424	0.383	0.386	0.403	0.463
SW 900	0.51	0.454	0.447	0.439	0.447	–	–	–	–	–	0.573	0.568	0.479	0.279	0.377	0.772	0.853	0.922	0.753	0.806
